Measurements taken from patent US10294234B2, “HIV inhibitor compounds” (priority 2017, dated 2019).
Read-outs that look alike come from different tables or passages of the source.

What was measured:
[1] = test system: HIV-1 (IIIB) in MT-4 cells; experiment: MT-4 HIV assay; type: cell-based; conditions: HIV-1 (IIIB), MT-4 cells, 5 days, Cell Titer Glo, read-out: EC50
Outline: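 MT-4 cells infected with HIV-1 IIIB (1:250 stock dilution) were incubated with 1:3 serially diluted compounds in RPMI with 10% FBS for 5 days at 37 °C. Cell Titer Glo luminescence was the readout. Plates included mock-infected wells, no-drug wells and 5 uM AZT controls.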

in vivo = conditions: rat, in vivo
Description: Each dosing group consisted of 3 male naïve SD Rats. At dosing, the animals weighed between 0.27 to 0.32 kg. The animals were fasted overnight prior to dose administration. The test article was administered by intravenous infusion over 30 min. The rate of infusion was adjusted according to the body weight of each animal to deliver a dose of 0.5 or 1.0 mg/kg. For the oral dosing group, the test article was administered to animals by oral gavage administration. Serial venous blood samples (approximately 0.30 mL each) were taken at predose and 0.25, 0.48, 0.58, 0.75, 1.5, 3, 6, 8, 12 and 24 hours post dose for the IV dosing group animals. Blood samples were taken at predose, 0.25, 0.50, 1, 2, 4, 6, 8, 12 and 24 hours post dose for the oral group animals. The blood samples were collected into Vacutainer™ tubes containing EDTA-K2 as the anti-coagulant and were immediately placed on wet ice pending centrifugation for plasma. An LC/MS/MS method was used to measure the concentration of test compound in plasma. Non-compartmental pharmacokinetic analysis was performed on the plasma concentration-time data.

[2] = Outline: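 Compounds at 1 uM were incubated in duplicate with dog, rat or human liver microsomes (0.5 mg/mL protein) and an NADPH-regenerating system, sampled at 2, 12, 25, 45 and 65 minutes. Remaining parent was measured by LC/MS/MS, and Clint was calculated from the in vitro t1/2.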
[3] = Human immunodeficiency virus 1, MT4, 120 h
[4] = human liver microsomes 0.5 mg/mL, 1 uM compound, NADPH
[5] = rat liver microsomes 0.5 mg/mL, 1 uM compound, NADPH

Row | Compound | EC50 [1, 3] [nM] | Human Pred Cl. ([2]; human, microsomes) [L/H/kg] | Rat. Pred. Cl. ([2]; rat, microsomes) [L/H/kg] | Human Pred Cl. [2, 4] [L/H/kg] | also measured
1 | COC(=O)N[C@H](C(=O)N[C@@H](Cc1ccc(C#Cc2ccc(N3CC4CCC(C3)N4C3COC3)nc2)cc1)[C@@H](O)CN(Cc1ccc(-c2ccccn2)cc1)NC(=O)[C@@H](NC(=O)OC)C(C)(C)C(F)(F)F)C(C)(C)C(F)(F)F [Example 56, Methyl ((5S,8S,9S,14S)-16,16,16-trifluoro-9-hydroxy-15,15-dimethyl-8-(4-((6-(8-(oxetan-3-yl)-3,8-diazabicyclo[3.2.1]octan-3-yl)pyridin-3-yl)ethynyl)benzyl)-3,6,13-trioxo-11-(4-(pyridin-2-yl)benzyl)-5-(1,1,1-trifluoro-2-methylpropan-2-yl)-2-oxa-4,7,11,12-tetraazahexadecan-14-yl)carbamate] | 3.59 | 0.17 | 0.19 | – | Vd (in vivo; male, SD, iv): 7.44 L/kg; RAT PO F (in vivo; male, SD, po, 2.5 mg/kg): 34.1%; RAT IV CL (in vivo; iv): 0.85 L/h/kg; RAT IV T1/2 (in vivo; iv): 8.77 h; Dog. Pred. Cl. ([2]; microsomes): 1.47 L/H/kg
2 | COC(=O)N[C@H](C(=O)N[C@@H](Cc1ccc(-c2ccn(CC(F)F)n2)cc1)[C@@H](O)CN(Cc1c(F)cc(-c2cnc(N3CC4CCC(C3)N4C3COC3)nc2)cc1F)NC(=O)[C@@H](NC(=O)OC)C(C)(C)C(F)(F)F)C(C)(C)C(F)(F)F [Example 212, Methyl ((5S,8S,9S,14S)-11-(2,6-difluoro-4-(2-(8-(oxetan-3-yl)-3,8-diazabicyclo[3.2.1]octan-3-yl)pyrimidin-5-yl)benzyl)-8-(4-(1-(2,2-difluoroethyl)-1H-pyrazol-3-yl)benzyl)-16,16,16-trifluoro-9-hydroxy-15,15-dimethyl-3,6,13-trioxo-5-(1,1,1-trifluoro-2-methylpropan-2-yl)-2-oxa-4,7,11,12-tetraazahexadecan-14-yl)carbamate] | 4.97 | 0.33 | 0.33 | – | –
3 | CC(C)([C@H](NC(=O)C1CC1)C(=O)N[C@@H](Cc1ccc(-c2cnn(C(F)F)c2)cc1)[C@@H](O)CN(Cc1c(F)cc(-c2cnn(C(F)F)c2)cc1F)NC(=O)[C@@H](NC(=O)C1CC1)C(C)(C)C(F)(F)F)C(F)(F)F [Example 214, N—((S)-1-(2-((2S,3S)-3-((S)-2-(cyclopropanecarboxamido)-4,4,4-trifluoro-3,3-dimethylbutanamido)-4-(4-(1-(difluoromethyl)-1H-pyrazol-4-yl)phenyl)-2-hydroxybutyl)-2-(4-(1-(difluoromethyl)-1H-pyrazol-4-yl)-2,6-difluorobenzyl)hydrazinyl)-4,4,4-trifluoro-3,3-dimethyl-1-oxobutan-2-yl)cyclopropanecarboxamide] | 12.3 | – | – | <0.11 | Rat. Pred. Cl. [2, 5]: <0.18 L/H/kg
4 | COC(=O)N[C@H](C(=O)NN(Cc1c(F)cc(-c2ccn(C(F)F)n2)cc1F)C[C@H](O)[C@H](Cc1ccc(-c2cnn(C(F)F)c2)cc1)NC(=O)[C@@H](NC(=O)OC)C(C)(C)C(F)(F)F)C(C)(C)C [Example 218, Methyl ((5S,8S,9S,14S)-11-(4-(1-(difluoromethyl)-1H-pyrazol-3-yl)-2,6-difluorobenzyl)-8-(4-(1-(difluoromethyl)-H-pyrazol-4-yl)benzyl)-9-hydroxy-15,15-dimethyl-3,6,13-trioxo-5-(1,1,1-trifluoro-2-methylpropan-2-yl)-2-oxa-4,7,11,12-tetraazahexadecan-14-yl)carbamate] | 2.99 | – | – | 0.92 | Rat. Pred. Cl. [2, 5]: 0.45 L/H/kg
5 | COC(=O)N[C@H](C(=O)N[C@@H](Cc1ccc(C#Cc2cnc(N3CC4CCC(C3)N4C3COC3)nc2)cc1)[C@@H](O)CN(Cc1c(F)cc(-c2cn(C(F)F)nn2)cc1F)NC(=O)[C@@H](NC(=O)OC)C(C)(C)C(F)(F)F)C(C)(C)C(F)(F)F [Example 219, Methyl ((5S,8S,9S,14S)-11-(4-(1-(difluoromethyl)-1H-1,2,3-triazol-4-yl)-2,6-difluorobenzyl)-16,16,16-trifluoro-9-hydroxy-15,15-dimethyl-8-(4-((2-(8-(oxetan-3-yl)-3,8-diazabicyclo[3.2.1]octan-3-yl)pyrimidin-5-yl)ethynyl)benzyl)-3,6,13-trioxo-5-(1,1,1-trifluoro-2-methylpropan-2-yl)-2-oxa-4,7,11,12-tetraazahexadecan-14-yl)carbamate] | 4.1 | <0.11 | 0.24 | – | Dog. Pred. Cl. ([2]; microsomes): 0.19 L/H/kg
6 | CC(C)([C@H](NC(=O)OC1COC1)C(=O)N[C@@H](Cc1ccc(C#Cc2cnc(N3CC4CCC(C3)N4C3COC3)nc2)cc1)[C@@H](O)CN(Cc1c(F)cc(-c2ccn(C(F)F)n2)cc1F)NC(=O)[C@@H](NC(=O)OC1COC1)C(C)(C)C(F)(F)F)C(F)(F)F [Example 220, Oxetan-3-yl ((2S)-1-(2-(4-(1-(difluoromethyl)-1H-pyrazol-3-yl)-2,6-difluorobenzyl)-2-((2S,3S)-2-hydroxy-4-(4-((2-(8-(oxetan-3-yl)-3,8-diazabicyclo [3.2.1]octan-3-yl)pyrimidin-5-yl)ethynyl)phenyl)-3-((S)-4,4,4-trifluoro-3,3-dimethyl-2-(((oxetan-3-yloxy)carbonyl)amino)butanamido)butyl)hydrazinyl)-4,4,4-trifluoro-3,3-dimethyl-1-oxobutan-2-yl)carbamate] | 7.66 | <0.11 | 0.34 | – | Dog. Pred. Cl. ([2]; microsomes): 0.46 L/H/kg
7 | COC(=O)N[C@H](C(=O)N[C@@H](Cc1ccc(C#Cc2ccc(N3CC4CCC(C3)N4C3COC3)nc2)cc1)[C@@H](O)CN(Cc1c(F)cc(-c2ccc(C)cn2)cc1F)NC(=O)[C@@H](NC(=O)OC)C(C)(C)C(F)(F)F)C(C)(C)C(F)(F)F [Example 229, Methyl ((5S,8S,9S,14S)-11-(2,6-difluoro-4-(5-methylpyridin-2-yl)benzyl)-16,16,16-trifluoro-9-hydroxy-15,15-dimethyl-8-(4-((6-(8-(oxetan-3-yl)-3,8-diazabicyclo [3.2.1]octan-3-yl)pyridin-3-yl)ethynyl)benzyl)-3,6,13-trioxo-5-(1,1,1-trifluoro-2-methylpropan-2-yl)-2-oxa-4,7,11,12-tetraazahexadecan-14-yl)carbamate] | 7.86 | <0.11 | 0.26 | – | –
8 | COC(=O)N[C@H](C(=O)N[C@@H](Cc1ccc(C#Cc2ccc(N3CC4CCC(C3)N4C3COC3)nc2)cc1)[C@@H](O)CN(Cc1c(F)cc(-c2cnn(C(F)F)c2)cc1F)NC(=O)[C@@H](NC(=O)OC)C(C)(C)CF)C(C)(C)CF [Example 233, methyl ((5S,8S,9S,14S)-11-(4-(1-(difluoromethyl)-1H-pyrazol-4-yl)-2,6-difluorobenzyl)-16-fluoro-5-(1-fluoro-2-methylpropan-2-yl)-9-hydroxy-15,15-dimethyl-8-(4-((6-(8-(oxetan-3-yl)-3,8-diazabicyclo[3.2.1]octan-3-yl)pyridin-3-yl)ethynyl)benzyl)-3,6,13-trioxo-2-oxa-4,7,11,12-tetraazahexadecan-14-yl)carbamate] | 2.71 | <0.11 | <0.18 | – | –
9 | Methyl ((5S,8S,9S,14S)-8-(4-((6-(3,8-diaza bicyclo[3.2.1]octan-3-yl)pyridin-3-yl)ethynyl)benzyl)-1-(4-(1-(difluoromethyl)-1H-pyrazol-3-yl)-2,6-difluorobenzyl)-16,16,16-trifluoro-9-hydroxy-15,15-dimethyl-3,6,13-trioxo-5-(1,1,1-trifluoro-2-methylpropan-2-yl)-2-oxa-4,7,11,12-tetraazahexadecan-14-yl)carbamate 2,2,2-trifluoroacetate [Example 161] | – | – | – | <0.11 | EC50 [1]: 14 nM
10 | Methyl ((5S,8S,9S,14S)-11-(2,6-difluoro-4-(1-methyl-1H-pyrazol-3-yl)benzyl)-16,16,16-trifluoro-9-hydroxy-15,15-dimethyl-8-(4-((6-(8-(oxetan-3-yl)-3,8-diazabicyclo[3.2.1]octan-3-yl)pyridin-3-yl)ethynyl)benzyl-3,6,13-trioxo-5-(1,1,1-trifluoro-2-methylpropan-2-yl)-2-oxa-4,7,11,12-tetraazahexadecan-14-yl)carbamate [Example 128] | – | – | – | 0.15 | EC50 [1]: 3.16 nM; Rat. Pred. Cl. [2, 5]: 0.37 L/H/kg
11 | Methyl ((5S,8S,9S,14S)-11-(4-(1-(difluoromethyl)-1H-pyrazol-4-yl)-2,6-difluorobenzyl)-16,16,16-trifluoro-9-hydroxy-15,15-dimethyl-8-(4-((6-(4-(oxetan-3-yl)piperazin-1-yl)pyridin-3-yl)ethynyl)benzyl)-3,6,13-trioxo-5-(1,1-trifluoro-2-methylpropan-2-yl)-2-oxa-4,7,11,12-tetraazahexadecan-14-yl)carbamate [Example 116] | – | 0.19 | 0.39 | – | EC50 [1]: 2.79 nM
